Source: patent US20210195900A1, “FUNGICIDAL MIXTURES FOR SOYBEAN DISEASES” (priority 2018, published 2021)

Tests used:
soybeans = assay: Soybean seed treatment field trial, grain yield (multi-year, multi-location); assay type: in vivo; conditions: control 60.4
Method: (§1) Soybean seeds treated with penthiopyrad, fluopyram, a combination thereof, at indicated application rates, along with appropriate controls were grown in multiple field locations under a variety of pest pressures including sudden death syndrome (SDS).
(§2) For those evaluations shown herein, the Treatment value is greater than or less than CONTROL, and statistically significant at (P-value <0.10).

[1] = test system: Fusarium virguliforme (SDS); assay: Soybean seed treatment field trial, SDS score at stage R6; assay type: in vivo; conditions: 9 = no disease, control 6.1
Method: as §1
Level of tolerance to Fusarium virguliforme (SDS) in soybean varieties based on SDS score was measured in multiple locations across multiple years. SDS score was determined at or during the soybean developmental stage R6.
Scale for assigning tolerance to SDS scores:
Scale 9=clean, no disease
Scale 8=Up to 10% of plants showing mild symptoms (yellow, chlorotic spots)
Scale 7=Up to 20% plants showing mild symptoms
Scale 6=up to 30% plants showing medium symptoms (necrotic spots develop in the chlorotic areas; considered the lowest ‘acceptable’ score)
Scale 5=40% or more of plants showing medium symptoms
Scale 4=50% or more plants showing medium to heavy symptoms
3, 2, or 1=1/3, 2/3, or complete leaf drop, respectively.
as §2

Row | SMILES | Multi-year, Multi-loc Yield (soybeans; fluopyram 0.075 mg ai/seed) | Multi-year, Multi-loc Yield (soybeans; fluopyram 0.15 mg ai/seed) | SDS Score (1-9) ([1]; fluopyram 0.075 mg ai/seed) | SDS Score (1-9) ([1]; fluopyram 0.15 mg ai/seed) | Multi-year, Multi-loc Yield (soybeans; penthiopyrad 0.25 mg ai/seed) | SDS Score (1-9) ([1]; penthiopyrad 0.25 mg ai/seed)
1 | O=C(NCCc1ncc(C(F)(F)F)cc1Cl)c1ccccc1C(F)(F)F [Fluopyram, N-{2-[3-Chloro-5-(trifluoromethyl)-2-pyridinyl]ethyl}-2-(trifluoromethyl)benzamide] | 62.2 bu/acre | 62.5 bu/acre | 6.8 | 7.2 |  | 
2 | CC(C)CC(C)c1sccc1NC(=O)c1cn(C)nc1C(F)(F)F (stereo not drawn) [Penthiopyrad, N-[2-(1,3-dimethylbutyl)-3-thienyl]-1-methyl-3-(trifluoromethyl)-1H-pyrazole-4-carboxamide] |  |  |  |  | 62.6 bu/acre | 6.7
